Consider five compounds from US4877727A, “Substrate for determining leucine aminopeptidase or gamma-glutamyltranspeptase activity” (Kyowa Medex Co., Ltd., priority 1984, dated 1989).

Values after ≈ are worked out from the molar mass of the structure shown. Bounds are passed on as bounds.

Series [1] in a line: Maximum wavelength of formed pigment. It is filed as physicochemical. The procedure: 50 μl of 1 mM each free compound was added to 3 ml of 0.1M phosphate buffer containing 0.5 mg/ml EMSE and 1 U/ml laccase and the mixture was incubated at 37° C. for 5 minutes. The absorption of the reaction solution at λmax was measured. As a control, 5-aminosalicylic acid was used and the reaction of the compound with 2,6-xylenol was carried out in the presence of metaperiodate under strong alkaline conditions.

A further series in a line: Stability of pigment. The series is classed as physicochemical.
A short description of another series: Solubility of substrate. The series is classed as physicochemical. The following applies: read-out: S: Solubility.
For series [2], the target named is T1, γ-glutamyltranspeptidase (γ-GTP) (Homo sapiens, UniProt P19440).
T1 construct: from tissue; host or cells: serum
Description: γ-GTP determination in serum (Example 3). It is filed as biochemical. The following applies: found with the compound as substrate; standard serum 235 mU/ml; 37° C., 5 minutes; wavelength of Table 2. The procedure: In this example, 500 mg of compound Nos. 1, 3, 5, 7 and 9 each and 500 mg of glycylglycine were dissolved in 100 ml (pH=7.7) and 0.1M phosphate buffer. The resultant solutions were designated A-1, A-3, A-5, A-7 and A-9, respectively. 50 mg of 3-{N-(m-tolyl)-N-ethyl}amino-2-hydroxypropane sulfonic acid was dissolved in 100 ml of phosphate buffer solution to obtain solution B. 50 mg/ml sodium meta-periodate containing 1N-HCl solution was prepared as solution C.
6 ml of solution A-1, A-3, A-5, A-7 or A-9 was equally poured to 3 test tubes. The samples were incubated at 37° C. and to the solution was added […] of (a) serum sample (b) standard serum or (c) water. The mixtures were stirred and heated for 5 minutes. After 5 minutes had passed, 1 ml of solution B and 1 ml of solution C were added to each of the mixtures and the mixtures were incubated for 10 minutes after stirring. As the standard serum, a serum having 235 mU/ml of γ-GTP was used.
The γ-GTP activity of the serum sample can be calculated by the following equation. [formula]

T1 sequence (P19440 1-380 limits assumed): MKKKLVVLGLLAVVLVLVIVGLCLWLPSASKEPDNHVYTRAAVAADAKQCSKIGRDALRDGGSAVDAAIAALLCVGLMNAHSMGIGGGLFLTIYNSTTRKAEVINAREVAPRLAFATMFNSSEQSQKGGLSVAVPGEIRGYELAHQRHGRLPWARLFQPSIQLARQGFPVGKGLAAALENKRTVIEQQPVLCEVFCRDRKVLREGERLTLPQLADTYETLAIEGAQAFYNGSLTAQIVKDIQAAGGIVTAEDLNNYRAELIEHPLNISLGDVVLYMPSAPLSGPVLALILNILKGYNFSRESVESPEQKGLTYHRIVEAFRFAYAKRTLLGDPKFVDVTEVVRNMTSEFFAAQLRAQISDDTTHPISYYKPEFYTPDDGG
T1 sequence (P19440 381-569 limits assumed): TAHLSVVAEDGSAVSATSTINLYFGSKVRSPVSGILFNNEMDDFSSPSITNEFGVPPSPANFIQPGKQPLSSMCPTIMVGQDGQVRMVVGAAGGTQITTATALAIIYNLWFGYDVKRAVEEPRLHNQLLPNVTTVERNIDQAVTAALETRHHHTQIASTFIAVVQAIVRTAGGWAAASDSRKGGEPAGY

In the case of `N[C@@H](CCC(=O)Nc1ccc(N(CCCS(=O)(=O)O)CCCS(=O)(=O)O)cc1)C(=O)O` [compound 1], the “λmax: Maximum wavelength” value in series [1] is reported as 745 nm. Moreover, the “ST: Stability of pigment” value in “Stability of pigment” was > 98%. Also, in “Solubility of substrate”, the solubility – broadly, how much of the substance goes into solution per volume – was > 200 mg/mL. Further, in series [2], the “γ-GTP activity of the serum sample” value is on record as 231 mU/ml.
The like results for `CN(CCCS(=O)(=O)O)c1ccc(NC(=O)CC[C@H](N)C(=O)O)cc1` [compound 3] were, in that order, 750 nm, > 96%, 80 mg/mL (≈ 214 mM) and 228 mU/ml.
The like results for `CCN(CC(O)CS(=O)(=O)O)c1ccc(NC(=O)CC[C@H](N)C(=O)O)cc1` (some centres unmarked) [compound 5] were, in that order, 740 nm, > 98%, 170 mg/mL (≈ 421 mM) and 236 mU/ml.
In the same order, the values of `N[C@@H](CCC(=O)Nc1ccc(N(CCCS(=O)(=O)O)CCCS(=O)(=O)O)c(S(=O)(=O)O)c1)C(=O)O` [compound 7] are 680 nm, 93%, > 20 mg/mL and 240 mU/ml.
On to `N[C@@H](CCC(=O)Nc1ccc(N(CCCS(=O)(=O)O)CCCS(=O)(=O)O)c(Cl)c1)C(=O)O` [compound 9], for which the “λmax: Maximum wavelength” value in series [1] worked out at 685 nm. Further, the “ST: Stability of pigment” value in “Stability of pigment” is > 98%. The solubility in the series “Solubility of substrate” is > 200 mg/mL. The “γ-GTP activity of the serum sample” value in series [2] was found to be 242 mU/ml.
